Reference: patent US8883841B2, “Oncogenic ras-specific cytotoxic compound and methods of use thereof” (The Board of Regents of the University of Texas System, priority 2005, dated 2014)
Like-named read-outs stand apart in the source and are kept apart here.

What was measured:
[1] = test system: PKCiota; assay: Immunohistochemical staining, subcellular localization of PKCiota; assay type: cell-based, human; conditions: 12 h; comparators at doses giving similar cell killing
Protocol: Effects on subcellular localization of PKCiota. […] To further investigate molecular mechanisms of Oncrasin action the inventors studied the subcellular localization of several molecules involved in Ras-signaling pathway because the functions of Ras and other proteins are directly related to their subcellular localizations. For this purpose, T29Kt1 or H460 cells were seeded on cover glass slides and treated with DMSO or Oncrasin-1 for 12 h. Cells were then fixed with paraformaldehyde, permeabilized with Triton X-100 and stained with various antibodies for immunohistochemical examination. […] Nevertheless, substantial subcellular localization change was detected for PKCiota after Oncrasin-1 treatment (FIG. 6). In both H460 and T29Kt1 cells, both PKCiota and PKCzeta were diffusely distributed in cells with high concentration on cell membrane in nucleus, consisting with previous reports that aPKC contains both nuclear localization signal (NLS) and nuclear export signal (NES), and can shuttle between cytoplasm and nucleus, which was regulated by intramolecular conformational changes, phosphorylation or by treatment with growth factors (Perander et al., 2001; White et al., 2002; Neri et al., 1999). […] Such aggregation of PKCiota was not observed in Oncrasin-resistant T29 and H1299 cells. The inventors then tested whether PKCiota aggregation in the nucleus can be induced by other chemotherapeutic agents such as 5-fluorouracil (5-FU) and paclitaxol.

[2] = test system: H460 cells; assay: cells; conditions: Homo sapiens
[3] = test system: HKE3; assay: Cell viability, HKE3 colon cancer cells; assay type: cell-based, human; conditions: HKE3, Colon
[4] = test system: Ovca429; assay: Cell viability, Ovca429 ovary cancer cells; assay type: cell-based
[5] = test system: H1395; assay: Cell viability, H1395 lung cancer cells; assay type: cell-based, human; conditions: Homo sapiens, NCI-H1395, read-out: IC50 (−LogM) (converted)
[6] = test system: Hey; assay: Cell viability, Hey ovary cancer cells; assay type: cell-based
[7] = test system: H2122; assay: Cell viability, H2122 lung cancer cells; assay type: cell-based, human; conditions: Homo sapiens, NCI-H2122, read-out: IC50 (−LogM) (converted)
[8] = test system: H226B cells; assay: Cell viability, H226B lung cancer cells; assay type: cell-based, human; conditions: for IC50 (−LogM): H226B, Lung, listed as Onk29; for IC50: Homo sapiens
[9] = test system: DLD1; assay: Cell viability, DLD1 colon cancer cells; assay type: cell-based, human; conditions: Homo sapiens, DLD-1, read-out: IC50 (−LogM) (converted)
[10] = test system: miapac; assay: Cell viability, miapac pancreatic cancer cells; assay type: cell-based, human; conditions: Homo sapiens, Pancreatic cancer cell, read-out: IC50 (−LogM) (converted)
[11] = test system: H2009; assay: Cell viability, H2009 lung cancer cells; assay type: cell-based, human; conditions: Homo sapiens, NCI-H2009, read-out: IC50 (−LogM) (converted)
[12] = test system: H1299 cells; assay: Cell viability, H1299 lung cancer cells; assay type: cell-based, human
[13] = test system: Ovcar443; assay: Cell viability, Ovcar443 ovary cancer cells; assay type: cell-based
[14] = test system: H2087; assay: Cell viability, H2087 lung cancer cells; assay type: cell-based, human; conditions: Homo sapiens, NCI-H2087, read-out: IC50 (−LogM) (converted)
[15] = test system: Sw620; assay: Cell viability, Sw620 colon cancer cells; assay type: cell-based, human
[16] = test system: SKOV3; assay: Cell viability, SKOV3 ovary cancer cells; assay type: cell-based; conditions: Homo sapiens, SK-OV-3
[17] = test system: Heb44; assay: Cell viability, Heb44 kidney cells; assay type: cell-based
[18] = test system: A549 cells; assay: Cell viability, A549 lung cancer cells; assay type: cell-based, human; conditions: A549, Lung
[19] = test system: Hct116; assay: Cell viability, Hct116 colon cancer cells; assay type: cell-based, human
[20] = test system: A549CK8; assay: Cell viability, A549CK8 lung cancer cells; assay type: cell-based, human; conditions: Homo sapiens, read-out: IC50 (−LogM) (converted)
[21] = test system: H322 cells; assay: Cell viability, H322 lung cancer cells; assay type: cell-based, human; conditions: Homo sapiens, NCI-H322, read-out: IC50 (−LogM) (converted)
[22] = test system: Capanc-1; assay: Cell viability, Capanc-1 pancreatic cancer cells; assay type: cell-based, human; conditions: capanc1, Pancrease
[23] = test system: H1933; assay: Cell viability, H1933 lung cancer cells; assay type: cell-based, human; conditions: Homo sapiens, read-out: IC50 (−LogM) (converted)
[24] = test system: Ovcar3; assay: Cell viability, Ovcar3 ovary cancer cells; assay type: cell-based; conditions: Homo sapiens, OVCAR-3
[25] = test system: Heb46; assay: Cell viability, Heb46 kidney cells; assay type: cell-based
[26] = test system: T29Kt1 cells; conditions: Table 1, value is the negative log10 of mol/L
[27] = test system: CT116P53; assay: Cell viability, CT116P53 colon cancer cells; assay type: cell-based, human; conditions: Homo sapiens, read-out: IC50 (−LogM) (converted)
[28] = test system: AsPC-1; assay: Cell viability, AsPC-1 pancreatic cancer cells; assay type: cell-based, human
[29] = test system: H23; assay: Cell viability, H23 lung cancer cells; assay type: cell-based, human; conditions: Homo sapiens, NCI-H23, read-out: IC50 (−LogM) (converted)

SMILES: O=c1cc(N2CCOCC2)oc2c(-c3ccccc3)cccc12 [LY294003, reference compound]
- PKCiota aggregation in the nucleus, T29Kt1 cells [1]: did not induce PKCiota aggregation

SMILES: O=c1[nH]cc(F)c(=O)[nH]1 [Oncrasin 5-FLY, 5-fluorouracil, reference compound]
- PKCiota aggregation in the nucleus, T29Kt1 cells [1]: did not induce PKCiota aggregation

SMILES: O=Cc1cn(Cc2ccc(Br)cc2)c2ccccc12 [Oncrasin K029, 1-(4-bromobenzyl)-1H-indole-3-carbaldehyde]
- IC50 ([2]; NCI-H460, read-out: IC50 (−LogM), H460, Lung (converted)): 0.00316 µM
- IC50 ([2]; NCI-H460, read-out: IC50 in H460 cells, Table 1): 0.00316 µM
- IC50 (−LogM) ([3]; first HKE3 line, listed as OnK29): 6.6 −LogM
- IC50 (−LogM) ([3]; first HKE3 line, listed as Onk29): 7 −LogM
- IC50 (−LogM) ([3]; second HKE3 line, listed as OnK29): 5.8 −LogM
- IC50 (−LogM) ([3]; second HKE3 line, listed as Onk29): 6.3 −LogM
- IC50 [4]: 3.16 µM
- IC50 [5]: 31.6 µM
- IC50 [6]: 31.6 µM
- IC50 [7]: 2 µM
- IC50 (−LogM) ([8]; first H226B line): 7.1 −LogM
- IC50 (−LogM) ([8]; second H226B line): 5.5 −LogM
- IC50 ([8]; read-out: IC50 (−LogM), H226B, Lung, first H226B line (converted)): 0.126 µM
- IC50 ([8]; read-out: IC50 (−LogM), H226B, Lung, second H226B line (converted)): 5.01 µM
- IC50 [9]: < 31.6 µM
- IC50 [10]: < 31.6 µM
- IC50 [11]: < 31.6 µM
- IC50 ([12]; Homo sapiens, NCI-H1299, read-out: IC50 (−LogM), h1299, Lung (converted)): 12.6 µM
- IC50 (−LogM) ([12]; h1299, Lung, listed as OnK29): 5.1 −LogM
- IC50 [13]: 10 µM
- IC50 [14]: 31.6 µM
- IC50 ([15]; Homo sapiens, SW-620, read-out: IC50 (−LogM), Sw620, Colon (converted)): 31.6 µM
- IC50 (−LogM) ([15]; Sw620, Colon, listed as OnK29): >4.5 −LogM
- IC50 [16]: 3.16 µM
- IC50 (−LogM) ([17]; listed as OnK29): 7.2 −LogM
- IC50 (−LogM) ([17]; listed as Onk29): 8.1 −LogM
- IC50 (−LogM) ([18]; listed as OnK29): 5 −LogM
- IC50 (−LogM) ([18]; listed as Onk29): >4.5 −LogM
- IC50 (−LogM) ([19]; Hct116, Colon, listed as OnK29): 5.5 −LogM
- IC50 ([19]; Homo sapiens, HCT-116, read-out: IC50 (−LogM), Hct116, Colon (converted)): 2.51 µM
- IC50 [20]: 3.16 µM
- IC50 [21]: 31.6 µM
- IC50 (−LogM) ([22]; listed as OnK29): 5 −LogM
- IC50 (−LogM) ([22]; listed as Onk29): 6 −LogM
- IC50 [23]: 31.6 µM
- IC50 [24]: 5.01 µM
- IC50 (−LogM) ([25]; listed as OnK29): 5.6 −LogM
- IC50 (−LogM) ([25]; listed as Onk29): 6.6 −LogM
- IC50 in T29k cells ([26]; listed as K29): 6.6
- IC50 in T29k cells [26]: 5
- IC50 [27]: < 31.6 µM
- IC50 (−LogM) ([28]; ASPC1, Pancrease, listed as OnK29): 5.3 −LogM
- IC50 ([28]; Homo sapiens, ASPC1, read-out: IC50 (−LogM), ASPC1, Pancrease (converted)): 3.98 µM
- IC50 [29]: 31.6 µM
